Laboratory results from patent US20050240034A1, “Artemisinin-based peroxide compounds as broad spectrum anti-infective agents” (priority 2002, published 2005).
In brackets after ≈: the same amount, converted by molar mass. Read-outs that look alike come from different tables or passages of the source.

Key:
[1] = test system: P. falciparum Sierra Leone D6 clone; assay: WHO/TDR in vitro antimalarial screen (uptake of radiolabeled nucleic acid precursor), D6 clone; format: cell-based, Plasmodium falciparum; details: mefloquine-resistant, chloroquine-sensitive, second value in brackets not explained
Procedure: (§1) All test compounds are solubilized in DMSO and diluted 400 fold (to rule out a DMSO effect) in culture medium with plasma for a starting concentration of at least 12,500 ng/mL. Drugs are subsequently diluted five fold using the Cetus Pro/Pette system utilizing a range of concentrations from 0.8 ng/mL to 12,500 ng/mL. Fifty percent inhibitory concentrations are reported in ng/mL.
(§2) The D6 African P. falciparum clone is sensitive to chloroquine, pyrimethamine and sulfadoxine but resistant to mefloquine. The W2 Indochina P. falciparum clone is resistant to chloroquine, pyrimethamine and sulfadoxine but sensitive to mefloquine. The K1 P. falciparum is a resistant strain, where NF54 P. falciparum is a sensitive strain.

[2] = test system: P. falciparum Indochina W2 clone; assay: WHO/TDR in vitro antimalarial screen, W2 clone; format: cell-based, Plasmodium falciparum; details: chloroquine-resistant, mefloquine-sensitive, second value in brackets not explained
Procedure: as §1, §2

P. falciparum K1 = assay: WHO/TDR in vitro antimalarial screen, K1; format: cell-based, Plasmodium falciparum; details: K1, chloroquine-resistant
Procedure: as §1, with “[…]. All” for “All”
as §2

P. falciparum NF54 = assay: WHO/TDR in vitro antimalarial screen, NF54; format: cell-based, Plasmodium falciparum; details: NF54, chloroquine-sensitive, second value in brackets not explained
Procedure: as §1, with “[…]. All” for “All”
as §2

P. berghei N = assay: in vivo Peter's 4-day antimalarial test in mice, P. berghei N; parameters: P. berghei N P.O. ED50 / P. berghei N P.O. ED90: unit not given beside the values; details: mice, 4-day test; for P. berghei N P.O. ED50 / P. berghei N P.O. ED90 / P. berghei N S.C. ED50 / P. berghei N S.C. ED90: unit not given; for ED50: Plasmodium berghei, 96 h, unit inferred
Procedure: (§3) The parasitemia is determined on the day following the last treatment—day 4 to determine qualitatively the presence and degree of activity at the screening dose.

P. yoelli ssp. NS = assay: in vivo 4-day antimalarial test in mice, P. yoelli ssp. NS; details: subcutaneous
Procedure: as §3

[3] = test system: P. falciparum D6 (Sierra Leone); assay: antimalarial parasite LDH (pLDH) assay, D6; format: cell-based, Plasmodium falciparum; details: for IC50: pLDH assay, Table 5, read-out: P. falciparum (D6 Clone) IC50; for P. falciparum (IC50) D6: LDH assay, Table 6; for S. I. (D6): Selectivity Index = IC50 (Vero cells)/IC50 (P. falciparum)
Procedure: (§4) The Thad Cochran National Center for Natural Products Research (University of Mississippi) in vitro antimalarial screen was conducted using an enzyme assay for detection of P. falciparum (see procedure below). This assay is based on the observation that lactate dehydrogenase (LDH) of P. falciparum is distinguishable from host LDH activity. P. falciparum LDH rapidly uses 3-acetyl pyridine nicotinamide adenine dinucleotide (APAD) as a coenzyme in the biotransformation of […].^38 The same process is carried out in human red blood cells at a very slow rate.
(§5) The “Antimalarial parasite LDH assay” is currently being conducted according the following procedure: prepare a suspension of RBC with a 2% parasitemia and 2% hematocrit in malaria complete medium. Dispense 200 μl aliquots of this suspension into each well of a 96 well microtiter plate. Add 10 μl volumes of the drugs to be tested in duplicate to the appropriate wells. Place the plates into humidified chamber and flush the cultures with a gas mixture consisting of 90% N2, 5% O2, and 5% CO2. Transfer the chamber containing the plates to an incubator, and incubate for 48 hours at 37° C. After 48 hours add 100 μl aliquots of the Malstat™ reagent to each well of a new 96-well microtiter plate Resuspend the cultures from the assay plate by mixing each well up and down several times. Remove 20 μl from each well of the resuspend culture and add to the plate containing the Malstat™ reagent. Incubate the plates at room temperature for 30 minutes. After 30 minutes, add to each well 20 μl of the 1:1 mixture of the NBT/PES solution (2 mg/ml and 0.1 mg/ml, respectively). Incubate the plates in the dark for 1 hour. Add 100 μl of 5% acetic acid solution to stop the reaction. The plate is then read at an endpoint of approximately 650 nm. The dose response curves are generated using Microsoft Excel.
(§6) Antimalarial activity of the analogues was determined in vitro on chloroquine sensitive (D)6, Sierra Leone) and resistant (W2, IndoChina) strains of Plasmodium falciparum. The 96 well microplate assay is based on evaluation of the effect of the compounds on the growth of asynchronous cultures of P. falciparum, determined by the assay of parasite lactate dehydrogenase (pLDH) activity.^28 The appropriate dilutions of the compounds were prepared in DMSO or RPMI-1640 medium and added to the cultures of P. falciparum (2% hematocrit, 2% parasitemia) set up in clear flat bottomed 96 well plates. The plates were placed into the humidified chamber and flushed with a gas mixture of 90% N2, 5% CO2 & 5% O2. The cultures were incubated at 37° C. for 48 hours. Growth of the parasite in each well was determined by pLDH assay using Malstat® reagent. The medium and RBC controls were also set-up in each plate. The standard antimalarial agents, chloroquine and artemisinin, were used as the positive controls while DMSO was tested as the negative control.

[4] = test system: P. falciparum W2 (IndoChina); assay: antimalarial parasite LDH (pLDH) assay, W2; format: cell-based, Plasmodium falciparum; details: for IC50: pLDH assay, Table 5, read-out: P. falciparum (W2 Clone) IC50; for P. falciparum (IC50) W2: LDH assay, Table 6; for S. I. (W2): Selectivity Index = IC50 (Vero cells)/IC50 (P. falciparum)
Procedure: as §4, §5
as §6, with “plate.” for “plate. The standard antimalarial agents, chloroquine and artemisinin, were used as the positive controls while DMSO was tested as the negative control.”

[5] = test system: Leishmania donovani promastigotes expressing firefly luciferase; assay: antileishmanial luciferase assay on transgenic promastigotes; format: cell-based; details: Table 1 (artemisinin analogues); NA = not active up to 125 μg/ml; read-out: Antileishmanial activity IC50
Procedure: Antileishmanial activity of the compounds was tested on a transgenic cell line of Leishmania donovani promastigotes expressing firefly luciferase.^29a In a 96 well microplate assay, compounds with appropriate dilution were added to the leishmania promastigotes culture (2×10^6 cell/mL). The plates were incubated at 26° C. for 72 hours and growth of leishmania promastigotes was determined by luciferase assay with Steady Glo® reagent (Promega, USA). Pentamidine and Amphotericin B were used as standard antileishmanial agents. The analogues were simultaneously tested for cytotoxicity on VERO cells (monkey kidney fibroblast) by Neutral Red assay.^29b IC50 values for the compounds were computed from the growth inhibition curve.

Compound: CCN(CC)CCCC(C)Nc1ccnc2cc(Cl)ccc12 (stereo not shown) [Chloroquine, chloroquine, reference compound]
- P. falciparum (IC50) D6 [1]: 7.58 ng/mL
- P. falciparum (IC50) W2 [2]: 118.04 ng/mL
- P. falciparum (IC50) K1 (P. falciparum K1): 0.07901 mg/L
- P. falciparum (IC50) NF54 (P. falciparum NF54): 7.36 ng/mL
- P. berghei N P.O. ED50 (P. berghei N; oral): 1.7
- P. berghei N P.O. ED90 (P. berghei N; oral): 3.1
- P. berghei N S.C. ED50 (P. berghei N; subcutaneous): 1.5
- P. berghei N S.C. ED90 (P. berghei N; subcutaneous): 3
- P. yoelli ssp. NS (S.C.) ED50 (P. yoelli ssp. NS; unit inferred): 1.6 mg/kg
- P. yoelli ssp. NS (S.C.) ED90 (P. yoelli ssp. NS; unit inferred): 28 mg/kg
- IC50 [3]: 0.0165 µM
- IC50 [4]: 0.233 µM

Compound: CC1CCC2C(CCCc3ccc(Cl)cc3)COC3OC4(C)CCC1C32OO4 (stereo not shown) [Compound 11]
- P. falciparum (IC50) D6 [1]: 1.9 (1.9) ng/mL
- P. falciparum (IC50) W2 [2]: 3.0 (2.2) ng/mL
- P. berghei N P.O. ED50 (P. berghei N; oral): 1.0
- P. berghei N P.O. ED90 (P. berghei N; oral): 2.1
- P. berghei N S.C. ED50 (P. berghei N; subcutaneous): 0.7
- P. berghei N S.C. ED90 (P. berghei N; subcutaneous): 1.2
- P. yoelli ssp. NS (S.C.) ED50 (P. yoelli ssp. NS; unit inferred): 0.6 mg/kg
- P. yoelli ssp. NS (S.C.) ED90 (P. yoelli ssp. NS; unit inferred): 1 mg/kg

Compound: OC(c1cc(C(F)(F)F)nc2c(C(F)(F)F)cccc12)C1CCCCN1 (stereo not shown) [Mefloquine, mefloquine, reference compound]
- IC50 ([1]; Plasmodium falciparum): 0.0456 mg/L (≈ 0.12 µM)
- IC50 ([2]; Plasmodium falciparum): 0.0341 mg/L (≈ 0.09 µM)
- IC50 (P. falciparum K1; Plasmodium falciparum): 0.0203 mg/L (≈ 0.0538 µM)
- IC50 (P. falciparum NF54; Plasmodium falciparum): 0.0354 mg/L (≈ 0.0935 µM)
- ED50 (P. berghei N; oral, read-out: P. berghei N P.O. ED50): 1.1 mg/kg
- ED50 (P. berghei N; sc, subcutaneous, read-out: P. berghei N S.C. ED50): 1.5 mg/kg
- P. berghei N P.O. ED90 (P. berghei N; oral): 2.3
- P. berghei N S.C. ED90 (P. berghei N; subcutaneous): 3.8
- ED50 (P. yoelli ssp. NS; Plasmodium yoelii, sc, unit inferred, read-out: P. yoelli ssp. NS (S.C.) ED50): 2.3 mg/kg
- IC50 ([3]; Plasmodium falciparum, D6): 0.17 µM
- IC50 ([4]; Plasmodium falciparum, W2): 0.195 µM

Compound: (+)-Octahydro3,6α-dimethyl-3,12-epoxy-9β-(3′-(3,5-difluorophenyl)propyl)-12H-pyrano[4,3j]-1,2-benzodioxepin [Compound 41]
- P. falciparum (IC50) W2 [2]: 6.70 ng/mL
- P. berghei N P.O. ED50 (P. berghei N; oral): <10
- P. berghei N P.O. ED90 (P. berghei N; oral): <10
- P. berghei N S.C. ED50 (P. berghei N; subcutaneous): <10
- P. berghei N S.C. ED90 (P. berghei N; subcutaneous): <10
- P. falciparum (IC50) D6 [3]: 0.0038 mg/L
- S. I. (D6) ([3]; D6): >125
- P. falciparum (IC50) W2 [4]: 0.0023 mg/L
- S. I. (W2) ([4]; W2): >207

Compound: (+)-Octahydro-3,6α-dimethyl-3,12-epoxy-9β-(3′-(3,5-bistrifluoromethylphenyl)propyl)-12H-pyrano[4,3j]-1,2-benzodioxepin [Compound 40]
- P. falciparum (IC50) W2 [2]: 7.11 ng/mL
- P. berghei N P.O. ED50 (P. berghei N; oral): <10
- P. berghei N P.O. ED90 (P. berghei N; oral): <10
- P. berghei N S.C. ED50 (P. berghei N; subcutaneous): <10
- P. berghei N S.C. ED90 (P. berghei N; subcutaneous): <10
- P. falciparum (IC50) D6 [3]: 0.012 mg/L
- S. I. (D6) ([3]; D6): >40
- P. falciparum (IC50) W2 [4]: 0.0095 mg/L
- S. I. (W2) ([4]; W2): >50

Compound: (+)-Octahydro-3,6α-dimethyl-3,12-epoxy-9β-(3′-(m-fluorophenyl)propyl)-12H-pyrano[4,3j]-1,2-benzodioxepin [Compound 37]
- P. falciparum (IC50) D6 [1]: 8.28 ng/mL
- P. falciparum (IC50) W2 [2]: 26.83 ng/mL
- P. falciparum (IC50) K1 (P. falciparum K1): 0.01156 mg/L
- P. falciparum (IC50) NF54 (P. falciparum NF54): 41.76 (27.33) ng/mL
- P. berghei N P.O. ED50 (P. berghei N; oral): 0.9 (0.38-1.9)
- P. berghei N P.O. ED90 (P. berghei N; oral): 3.4 (1.45-7.5)
- P. berghei N S.C. ED50 (P. berghei N; subcutaneous): 0.46 (0.19-1.1)
- P. berghei N S.C. ED90 (P. berghei N; subcutaneous): 0.85 (0.36-2.3)
- P. yoelli ssp. NS (S.C.) ED50 (P. yoelli ssp. NS; unit not given): 0.58 (0.45-1.0)
- P. yoelli ssp. NS (S.C.) ED90 (P. yoelli ssp. NS; unit not given): 1.00 (0.8-1.8)
- P. falciparum (IC50) D6 [3]: 0.011 mg/L
- S. I. (D6) ([3]; D6): >43.0
- P. falciparum (IC50) W2 [4]: 0.012 mg/L
- S. I. (W2) ([4]; W2): >40
- IC50 [5]: 88.3 µM

Compound: (+)-Octahydro-3,6α-dimethyl-3,12-epoxy-9β-(3′-(m-trifluoromethylphenyl)propyl)-12H-pyrano[4,3j]-1,2-benzodioxepin [Compound 38]
- P. falciparum (IC50) D6 [1]: 8.48 ng/mL
- P. falciparum (IC50) W2 [2]: 30.32 ng/mL
- P. falciparum (IC50) K1 (P. falciparum K1): 0.012 mg/L
- P. falciparum (IC50) NF54 (P. falciparum NF54): 35.60 (30.76) ng/mL
- P. berghei N P.O. ED50 (P. berghei N; oral): 1.25 (0.5-2.3)
- P. berghei N P.O. ED90 (P. berghei N; oral): 4.4 (1.3-6.2)
- P. berghei N S.C. ED50 (P. berghei N; subcutaneous): 0.4 (0.2-1.2)
- P. berghei N S.C. ED90 (P. berghei N; subcutaneous): 0.75 (0.4-2.1)
- P. yoelli ssp. NS (S.C.) ED50 (P. yoelli ssp. NS; unit not given): 0.60 (0.3-0.9)
- P. yoelli ssp. NS (S.C.) ED90 (P. yoelli ssp. NS; unit not given): 1.00 (0.5-1.5)
- P. falciparum (IC50) D6 [3]: 0.0087 mg/L
- S. I. (D6) ([3]; D6): >55.0
- IC50 [3]: 0.0278 µM
- P. falciparum (IC50) W2 [4]: 0.011 mg/L
- S. I. (W2) ([4]; W2): >43
- IC50 [4]: 0.0113 µM
- IC50 [5]: 1.9 µM

Compound: quinine [reference compound]
- P. falciparum (IC50) K1 (P. falciparum K1): 0.0996 mg/L
- P. falciparum (IC50) NF54 (P. falciparum NF54): 9.08 ng/mL
- P. berghei N P.O. ED50 (P. berghei N; oral): 71
- P. berghei N P.O. ED90 (P. berghei N; oral): 118
- P. berghei N S.C. ED50 (P. berghei N; subcutaneous): 25
- P. berghei N S.C. ED90 (P. berghei N; subcutaneous): 190
- P. yoelli ssp. NS (S.C.) ED50 (P. yoelli ssp. NS; unit inferred): 128 mg/kg
